US9834514B2, “Antibiotic sensitivity-restoring and photosensitive agents” (New Mexico Tech Research Foundation, priority 2015, dated 2017)
Converted amounts (≈) assume the structure as drawn. Where two headings read alike, the source gives them in different places.

How the values were obtained:
[1] = MIC against MRSA isolates; assay type: cell-based, S. aureus; details: Staphylococcus aureus
Procedure, shortened: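 Broth microdilution in TSB, ~5×10^5 CFU/mL, two-fold dilutions from 100 μM, overnight at 37 °C shaking 100 rpm.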

[2] = system: Klebsiella pneumoniae (CRE, ATCC BAA-1705); assay: Time-dependent colony counts of CRE with compounds and PME; assay type: cell-based; details: PME 0.2 μg/mL, compound 20 μM; FIGS. 48, 49
Protocol: The MICs of PME and compounds 8-11 were determined against Klebsiella pneumoniae (CRE, ATCC BAA-1705). […] […] At specific time points, the samples were taken and diluted ten-fold in media. Ten microliters of each dilution was then drip-streaked onto an agar plate and incubated overnight at 37° C. Colony counts were then performed and the CFU/mL were calculated.

MRSA (ATCC BAA-44) = assay: Synergy with oxacillin and norfloxacin and other antibiotics (colony counts); assay type: cell-based, S. aureus; details: for MICs greater than cells treated with compound alone, with norfloxacin / MICs greater than cells treated with compound alone, with oxacillin: FIGS. 35-38; for Orders of Magnitude with Norfloxacin / Orders of Magnitude with Oxacillin: increase in ability to kill MRSA versus drug or compound alone; for Synergy with Norfloxacin / Synergy with Oxacillin: TABLE 6; for log reduction in the number of surviving cells (CFU/mL), co-treatment with norfloxacin / log reduction in the number of surviving cells (CFU/mL), co-treatment with oxacillin: compared to compound alone, FIGS. 34, 39, 41
Protocol: The synergy of compounds 1 and 7-11 with oxacillin and norfloxacin was tested against MRSA (ATCC BAA-44). An overnight culture of MRSA was first diluted to about 5×10^5 CFU/mL in TSB. Then, 1 mL of the diluted broth suspension was added to a borosilicate glass culture tube. An appropriate volume of a compound or an antibiotic drug stock was added to the broth suspension and mixed using a vortex mixer. Then an appropriate volume of an antibiotic was added to test synergy with compounds 7-11. The samples were subsequently mixed using a vortex mixer, and the samples were incubated for 18 hours at 37° C. on a rotary shaking incubator. After 18 hours, the test cultures were diluted ten-fold, 10 μL of each dilution was drip-streaked onto a TSA plate, and the samples were incubated for 18 hours at 37° C. Colony counts were then performed and the CFU/mL values were calculated.
TABLE 21 details the MIC values identified in the MRSA assay of compounds 1, 7, 8, 9, 10, 11, various antibiotics, and light.

VRE = assay: MIC against VRE; assay type: cell-based, Enterococcus faecalis; details: Enterococcus, TABLE 23, read-out: VRE MIC
Protocol: In a 12×75 mm borosilicate glass culture tube, 1 mL of cell suspension was added. Then, compound 7 was added to the cells, and the samples were mixed using a vortex mixer. […] The samples were incubated overnight at 37° C. on a rotary shaking incubator at 100 rpm.

[3] = system: A. baumannii (ATCC 15151); assay: MIC against A. baumannii; assay type: cell-based; details: Acinetobacter baumannii, ATCC15151
Protocol: TABLE 28 details the individual MIC values of compounds 1, 7, 8, 9, 10, 11, PMB, PME, and light against A. baumannii.
(§1) The MICs of PME and compounds 8-11 were determined against A. baumannii (ATCC 15151). […] After incubating the cells with PME, a compound (5 μM) was added, and the samples were further incubated at 37° C. At specific time points, samples were taken and diluted ten-fold in media. Ten microliters of each dilution was then drip-streaked onto an agar plate and incubated overnight at 37° C. Colony counts were then performed, and the CFU/mL were calculated.

[4] = system: A. baumannii (ATCC 15151); assay: Time course of colony counts with compounds and PME or PMB; assay type: cell-based; details: 0.2 μg/mL of PME, compound 5 μM; FIGS. 50, 52
Protocol: as §1

MRSA [5] = assay: Resensitization to antibiotics (log reduction, TABLE 29); assay type: cell-based, S. aureus
Protocol: (§2) In a 96-well microtiter plate, two-fold dilutions were made of each drug (starting with 100 μM) in 100 μL of a cell suspension in TSB. The resulting samples were incubated overnight at 37° C. on a rotary shaking incubator at 100 rpm. The samples were then visually inspected for turbidity. A 20% well volume of MTT reagent (5 mg/mL) was subsequently added, and the samples were incubated for about 20 minutes.

CRE = assay: as above; assay type: cell-based; details: compound 20 μM
Protocol: as §2

P. aeruginosa = assay: as above; assay type: cell-based; details: compound 20 μM; PME (0.1 μg/mL)
S. aureus (ATCC 29213) = assay: microbe, parasite or virus in culture; assay type: cell-based; details: for MIC: Staphylococcus aureus, ATCC29213, read-out: Final MIC Apr. 16, 2015
Protocol: Each mixture was incubated at 37° C. on a rotary shaking incubator for about 16 hours. MTT was then added to assess the viability of the cells (at 10% well volume). […] The cells were then streaked onto a TSA plate and incubated overnight at 37° C. These steps were repeated to reach a total of 30 exposures.

MRSA [6] = assay: Resensitization to antibiotics (log reduction, TABLE 29); assay type: cell-based, S. aureus; remark: listed apart in the source
[7] = MRSA (ATCC BAA-44), TABLE 21, read-out: MRSA MIC
[8] = MRSA isolate ATCC 33591, read-out: MIC
[9] = MRSA isolate ATCC BAA-44, read-out: MIC
[10] = MRSA isolate ATCC BAA-1707, read-out: MIC
[11] = MRSA isolate ATCC BAA-1717, read-out: MIC
[12] = MRSA isolate ATCC BAA-1720, read-out: MIC
[13] = MRSA isolate ATCC BAA-1747, read-out: MIC
[14] = MRSA isolate ATCC BAA-1754, read-out: MIC
[15] = MRSA isolate ATCC BAA-1761, read-out: MIC
[16] = MRSA isolate ATCC BAA-1763, read-out: MIC
[17] = MRSA isolate ATCC BAA-1764, read-out: MIC
[18] = MRSA isolate ATCC BAA-1766, read-out: MIC
[19] = (½) MIC compound + (¼) MIC Norfloxacin
[20] = (½) MIC compound + (⅓) MIC Oxacillin
[21] = (⅛) MIC compound + (1/16) MIC Norfloxacin
[22] = (⅛) MIC compound + (⅛) MIC Oxacillin
[23] = (⅛) MIC compound + (1/7) MIC Norfloxacin
[24] = (⅛) MIC compound + (¼) MIC Oxacillin

Row | Compound | MIC [1, 7] [µM] | MIC [1, 8] [µM] | MIC [1, 9] [µM] | MIC [1, 10] [µM] | MIC [1, 11] [µM] | MIC [1, 12] [µM] | MIC [1, 13] [µM] | MIC [1, 14] [µM] | MIC [1, 15] [µM] | MIC [1, 16] [µM] | MIC [1, 17] [µM] | MIC [1, 18] [µM] | CRE colony populations on simultaneous treatment with PME [2] | Orders of Magnitude with Norfloxacin (MRSA (ATCC BAA-44)) | Orders of Magnitude with Oxacillin (MRSA (ATCC BAA-44)) | MIC (VRE) [µM] | MIC [3] [µM] | A. baumannii colony populations on treatment with compound and PME [4] | Log Reduction (CRE; PME (0.2 μg/mL)) | Log Reduction (P. aeruginosa) | other results
1 | Clc1ccc(/N=N/c2c[nH]c3ccccc23)cc1 [Compound 9] | 16 (≈ 4.09 µg/mL) | 12.5 (≈ 3.2 µg/mL) | 16 (≈ 4.09 µg/mL) | 12.5 (≈ 3.2 µg/mL) | 6.3 to 12.5 (≈ 1.61 to 3.2 µg/mL) | 12.5 (≈ 3.2 µg/mL) | 12.5 (≈ 3.2 µg/mL) | 12.5 (≈ 3.2 µg/mL) | 12.5 (≈ 3.2 µg/mL) | 12.5 (≈ 3.2 µg/mL) | 12.5 (≈ 3.2 µg/mL) | 12.5 (≈ 3.2 µg/mL) | reduced the CRE colony populations to sterility | >2 | >2 | > 200 | > 100 | reduced to sterility | 6 | 2 | % Kill (MRSA (ATCC BAA-44); [19]): 99%; Surviving MRSA (MRSA (ATCC BAA-44); [19]): 1.00 × 10^−2; % Kill (MRSA (ATCC BAA-44); [20]): 99%; Surviving MRSA (MRSA (ATCC BAA-44); [20]): 1.00 × 10^−2; MICs greater than cells treated with compound alone, with norfloxacin (MRSA (ATCC BAA-44)): two-fold; MICs greater than cells treated with compound alone, with oxacillin (MRSA (ATCC BAA-44)): two-fold; Log Reduction (MRSA [5]; compound 8 μM, Oxacillin ([…])): 2-3; Log Reduction (CRE; PMB (0.2 μg/mL)): 6; Resistance Evolved (S. aureus (ATCC 29213)): No; MIC (S. aureus (ATCC 29213)): 8 µM (≈ 2.05 µg/mL); Log Reduction (MRSA [6]; compound 8 μM, Norfloxacin (25 μg/mL)): 2-3
2 | Clc1ccc(Oc2c(-c3ccc(Cl)cc3)[nH]c3ccccc23)cc1 [Compound 10] | 16 (≈ 5.67 µg/mL) | 12.5 (≈ 4.43 µg/mL) | 8 (≈ 2.83 µg/mL) | 12.5 (≈ 4.43 µg/mL) | 6.3 (≈ 2.23 µg/mL) | 6.3 (≈ 2.23 µg/mL) | 12.5 to 25 (≈ 4.43 to 8.86 µg/mL) | 50 (≈ 17.7 µg/mL) | > 100 | 50 to 100 (≈ 17.7 to 35.4 µg/mL) | > 100 | 25 to 50 (≈ 8.86 to 17.7 µg/mL) | reduced the CRE colony populations to sterility | 8 | 8 | 10 to 20 (≈ 3.54 to 7.08 µg/mL) | > 100 | reduced to sterility | 6 | 2 | % Kill (MRSA (ATCC BAA-44); [21]): 99.99%; Surviving MRSA (MRSA (ATCC BAA-44); [21]): 1.00 × 10^−8; % Kill (MRSA (ATCC BAA-44); [22]): 99.99%; Surviving MRSA (MRSA (ATCC BAA-44); [22]): 1.00 × 10^−8; MICs greater than cells treated with compound alone, with norfloxacin (MRSA (ATCC BAA-44)): eight-fold; MICs greater than cells treated with compound alone, with oxacillin (MRSA (ATCC BAA-44)): eight-fold; Synergy with Norfloxacin (MRSA (ATCC BAA-44)): 5-log reduction; Synergy with Oxacillin (MRSA (ATCC BAA-44)): 4-log reduction; log reduction in the number of surviving cells (CFU/mL), co-treatment with norfloxacin (MRSA (ATCC BAA-44)): ~5 log; log reduction in the number of surviving cells (CFU/mL), co-treatment with oxacillin (MRSA (ATCC BAA-44)): ~4 log; Log Reduction (MRSA [5]; compound 1 μM, Oxacillin (100 μg/mL)): 4-5; Resistance Evolved (S. aureus (ATCC 29213)): No; MIC (S. aureus (ATCC 29213)): 16 to 32 µM (≈ 5.67 to 11.3 µg/mL); Log Reduction (MRSA [6]; compound 1 μM, Norfloxacin (15 μg/mL)): 5-6
3 | Clc1ccc(Oc2c(-c3ccc(Cl)cc3)[nH]c3ccc(Cl)cc23)cc1 [Compound 11] | 8 (≈ 3.11 µg/mL) | 6.3 to 12.5 (≈ 2.45 to 4.86 µg/mL) | 4 (≈ 1.55 µg/mL) | 12.5 (≈ 4.86 µg/mL) | 3.1 to 6.3 (≈ 1.2 to 2.45 µg/mL) | 3.1 to 6.3 (≈ 1.2 to 2.45 µg/mL) | 6.3 to 12.5 (≈ 2.45 to 4.86 µg/mL) | 50 to 100 (≈ 19.4 to 38.9 µg/mL) | 50 to 100 (≈ 19.4 to 38.9 µg/mL) | 50 (≈ 19.4 µg/mL) | 50 (≈ 19.4 µg/mL) | 50 to 100 (≈ 19.4 to 38.9 µg/mL) | reduced the CRE colony populations to sterility | 5 | 5 | 20 (≈ 7.77 µg/mL) | > 100 | reduced to sterility | 6 | 2 | % Kill (MRSA (ATCC BAA-44); [23]): 99.99%; Surviving MRSA (MRSA (ATCC BAA-44); [23]): 1.00 × 10^−5; % Kill (MRSA (ATCC BAA-44); [24]): 99.99%; Surviving MRSA (MRSA (ATCC BAA-44); [24]): 1.00 × 10^−5; Synergy with Norfloxacin (MRSA (ATCC BAA-44)): 8-log reduction; Synergy with Oxacillin (MRSA (ATCC BAA-44)): 5-log reduction; log reduction in the number of surviving cells (CFU/mL), co-treatment with norfloxacin (MRSA (ATCC BAA-44)): ~8 log; log reduction in the number of surviving cells (CFU/mL), co-treatment with oxacillin (MRSA (ATCC BAA-44)): ~5 log; killing of MRSA in conjunction with oxacillin (MRSA (ATCC BAA-44); compound 11 at 1 μM, FIG. 40): more effective at killing MRSA when used in conjunction with oxacillin; Resistance Evolved (S. aureus (ATCC 29213)): Yes; MIC (S. aureus (ATCC 29213)): > 256 µM; Log Reduction (MRSA [6]; compound 0.5 μM, Norfloxacin (20 μg/mL)): 8; Log Reduction (MRSA [6]; compound 0.5 μM, Oxacillin (100 μg/mL)): 5
